The text below walks through data of patent EP0486702A1, “PHENYL 4-GUANIDINOBENZOATE DERIVATIVE, PROCESS FOR PRODUCING THE SAME, AND PROTEASE INHIBITOR CONTAINING THE SAME” (Asahi Kasei Kogyo Kabushiki Kaisha, priority 1990, dated 1991).

Counter-ions that a name gives are not always drawn. Like-named read-outs stand apart in the source and are kept apart here.

In one test the target is plasmin (Homo sapiens, UniProt P00747). Nature of the test: in vitro plasmin inhibition, substrate Boc-Val-Leu-Lys-7-amido-4-methylcoumalin. Format: biochemical. From the text:
(§1) The method disclosed in JP-A-2-101017 was slightly modified and used for the measurement of the function of typical compounds belonging to the compound (I) of the present invention (Compounds 39, 3, 2, 26, 31 and 10) in terms of their in vitro activities to inhibit trypsin, thrombin, plasmin, factor Xa and elastase.
(§2) Substrate used for the enzyme reaction were: benzoyl-Arg-7-amido-4-methylcoumalin for trypsin, Boc-Val-Pro-Arg-7-amido-4-methylcoumalin for thrombin, Boc-Val-Leu-Lys-7-amido-4-methylcoumalin for plasmin, Boc-Ile-Glu-Gly-Arg-7-amido-4-methylcoumalin for factor Xa and methoxysuccinyl-Ala-Ala-Pro-Val-7-amido-4-methylcoumalin for elastase. […] Each enzyme reaction was carried out in 0.2 M Tris-HCl buffer supplemented with 0.02 M CaCl₂ and 0.005% Triton X-100 at pH 8.0 for trypsin, thrombin, plasmin and factor Xa or at pH 7.2 for elastase. Each sample solution to be measured was mixed with each enzyme solution and the reaction mixture was incubated at 25°C for 60 minutes in the case of trypsin or for 20 minutes in other cases of enzymes. In this instance, a compound disclosed in JP-A-51-138642 was used as a Comparative Example 1, and a compound disclosed in JP-A-63-165357 as a Comparative Example 2.

The target of another test is T1, trypsin (Bos taurus, UniProt P00760).
T1 sequence (P00760 24-246): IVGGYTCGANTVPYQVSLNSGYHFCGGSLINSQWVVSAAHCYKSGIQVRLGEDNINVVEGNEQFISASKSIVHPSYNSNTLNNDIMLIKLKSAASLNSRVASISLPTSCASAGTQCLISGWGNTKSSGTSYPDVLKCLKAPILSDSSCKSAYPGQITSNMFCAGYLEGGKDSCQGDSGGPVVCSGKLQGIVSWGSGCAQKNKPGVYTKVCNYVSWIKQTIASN
Nature of the test: in vitro trypsin inhibition, fluorogenic substrate benzoyl-Arg-7-amido-4-methylcoumalin. The settings on record: 0.2 M Tris-HCl, 0.02 M CaCl2, 0.005% Triton X-100, pH 8.0, 25°C, 60 minutes. Type of test: biochemical.
Text: as §1, §2

The subject of another test is male rats of Wistar line. Nature of the test: caerulein-induced acute pancreatitis edema, prevention by oral administration. Type of test: in vivo. The conditions noted are these: for Serum amylase / % Pancreas wt.: 15 minutes before caerulein (40 µg/kg i.p. twice); for Serum amylase: blood 6 hours after second caerulein; for % Pancreas wt.: pancreas wet weight to body weight, 6 hours after second caerulein. The procedure:
[…] Experiments were started at eight o'clock in the morning, with the animals in each group under satiation conditions. After measuring their body weights, caerulein pancreatitis was prepared by intraperitoneal administration of caerulein (mfd. by Kyowa Hakko K.K.) (40 μg/kg) twice at one hour interval. Six hours after the second administration, each rat was subjected to laparotomy to collect blood from the abdominal aorta and to excise the pancreas. […] Wet weight of the excised pancreas was measured and its ratio to the body weight was calculated. As a comparative example, the same process was repeated except that the inventive compound was replaced by the compound used in Pharmacological Trial 1 as Comparative Example 1, a compound which has been disclosed in JP-A-51-138642.

A further test concerns the target factor Xa (Homo sapiens, UniProt P00742). Put plainly: in vitro factor Xa inhibition, substrate Boc-Ile-Glu-Gly-Arg-7-amido-4-methylcoumalin. Format: biochemical. The settings on record: 0.2 M Tris-HCl, 0.02 M CaCl2, 0.005% Triton X-100, pH 8.0, 25°C, 20 minutes.
In another test the target is thrombin (Homo sapiens, UniProt P00734). Nature of the test: in vitro thrombin inhibition, substrate Boc-Val-Pro-Arg-7-amido-4-methylcoumalin. Format: biochemical. The settings on record: 0.2 M Tris-HCl, 0.02 M CaCl2, 0.005% Triton X-100, pH 8.0, 25°C, 20 minutes.
Setting [1] is: 100 mg/kg oral, caerulein alone 817 ± 103.
[2] abbreviates: 100 mg/kg oral, caerulein alone 0.88 ± 0.07.
The mark [3] stands for this setting: 0.2 M Tris-HCl, 0.02 M CaCl2, 0.005% Triton X-100, pH 8.0, 25°C, 20 minutes.

plasmin, sequence (P00747 581-810 limits assumed, species assumed): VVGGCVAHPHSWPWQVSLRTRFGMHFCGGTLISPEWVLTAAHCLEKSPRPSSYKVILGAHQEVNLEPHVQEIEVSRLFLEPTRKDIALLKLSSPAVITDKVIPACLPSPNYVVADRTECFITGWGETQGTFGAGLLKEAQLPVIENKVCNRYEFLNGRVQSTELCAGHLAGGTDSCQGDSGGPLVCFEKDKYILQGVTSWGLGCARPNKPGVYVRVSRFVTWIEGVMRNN
plasmin, sequence (P00747 97-580 partner limits assumed, species assumed): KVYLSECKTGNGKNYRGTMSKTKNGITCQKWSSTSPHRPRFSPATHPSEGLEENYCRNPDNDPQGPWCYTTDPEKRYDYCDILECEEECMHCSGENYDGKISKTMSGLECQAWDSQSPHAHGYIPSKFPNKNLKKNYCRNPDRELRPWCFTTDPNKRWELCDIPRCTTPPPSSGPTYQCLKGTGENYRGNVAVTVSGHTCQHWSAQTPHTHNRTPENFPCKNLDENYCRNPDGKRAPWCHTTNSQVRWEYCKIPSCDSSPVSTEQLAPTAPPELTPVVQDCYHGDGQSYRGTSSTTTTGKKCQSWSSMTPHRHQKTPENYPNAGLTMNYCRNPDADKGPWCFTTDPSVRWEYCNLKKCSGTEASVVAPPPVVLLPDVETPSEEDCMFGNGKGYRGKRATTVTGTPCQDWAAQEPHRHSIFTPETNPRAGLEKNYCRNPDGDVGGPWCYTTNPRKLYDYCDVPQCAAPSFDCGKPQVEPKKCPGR
factor Xa, sequence (P00742 235-488 limits assumed): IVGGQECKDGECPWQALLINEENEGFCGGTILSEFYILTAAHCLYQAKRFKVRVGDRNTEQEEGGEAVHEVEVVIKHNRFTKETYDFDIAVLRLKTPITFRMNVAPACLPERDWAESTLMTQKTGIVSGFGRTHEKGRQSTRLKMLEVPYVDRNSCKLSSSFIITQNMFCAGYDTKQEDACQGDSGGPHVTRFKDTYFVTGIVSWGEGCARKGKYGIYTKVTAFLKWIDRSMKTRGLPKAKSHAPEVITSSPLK
factor Xa, sequence (P00742 41-179 partner limits assumed): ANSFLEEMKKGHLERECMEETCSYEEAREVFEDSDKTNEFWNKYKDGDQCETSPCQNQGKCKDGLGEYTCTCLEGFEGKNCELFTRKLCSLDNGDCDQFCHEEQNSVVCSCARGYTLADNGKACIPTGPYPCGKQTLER

Turning to `CN(C)C(=O)COC(=O)Cc1ccc(OC(=O)c2ccc(NC(=N)N)cc2)cc1` [Comp. Ex. 1, reference compound], the figures for the IC50 at plasmin, against trypsin and against factor Xa were 120 nM, 25 nM and 56000 nM, respectively. The Serum amylase in the test with male rats of Wistar line (setting [1]) was 216 ± 7 IU/ml. In addition, the “% Pancreas wt.” value with male rats of Wistar line (setting [2]) was 0.47 ± 0.09%. Further, the “histological observation of the pancreas (pancreatitis-specific signs)” value in the test on male rats of Wistar line (rat group of 100 mg oral administration, caerulein pancreatitis) is given as “decrease in the pancreatitis-specific signs, but the reducing effects were inferior to those of Compound 39”.
Turning to `N=C(N)Nc1ccc(C(=O)Oc2cc(Cl)cc(Cl)c2)cc1` [Comp. Ex. 2, reference compound], the half-maximal inhibitory concentration (IC50) – broadly, the point on the concentration scale where inhibition reaches its midpoint – stood at 880 nM at thrombin, 90 nM on plasmin (setting [3]), 9.5 nM against trypsin and 8500 nM against factor Xa.
On to `N=C(N)Nc1ccc(C(=O)Oc2cccc(OC(F)(F)F)c2)cc1` [Compound 2, 3-trifluoromethoxyphenyl 4-guanidinobenzoate], for which the half-inhibitory concentration (IC50) against thrombin was 77 nM; against plasmin (setting [3]), 43 nM; at trypsin, 0.17 nM; against factor Xa it was 430 nM.
For `N=C(N)Nc1ccc(C(=O)Oc2ccc(OC(F)(F)F)cc2)cc1` [Compound 3, 4-trifluoromethoxyphenyl 4-guanidinobenzoate], in that order: 39 nM, 18 nM, 0.84 nM and 440 nM.
As for `CON=C(C)c1cccc(OC(=O)c2ccc(NC(=N)N)cc2)c1` [Compound 10, 3-(1-methoxyiminoethyl)phenyl 4-guanidinobenzoate], the IC50 against thrombin worked out at 140 nM; at plasmin (setting [3]) it was 63 nM; at trypsin it was 0.52 nM; on factor Xa it was 2500 nM.
Take `CC1(C(=O)Oc2cc(Cl)cc(OC(=O)c3ccc(NC(=N)N)cc3)c2)CC1` [Compound 26, 3-chloro-5-(1-methylcyclopropylcarbonyloxy)phenyl 4-guanidinobenzoate methanesulfonic acid salt]: the IC50 against thrombin was 69 nM; against plasmin (setting [3]), 15 nM; against trypsin, 0.25 nM; against factor Xa, 340 nM.
As for `N=C(N)Nc1ccc(C(=O)Oc2cc(Cl)cc(OC(=O)C3CCCCC3)c2)cc1` [Compound 31, 3-chloro-5-cyclohexylcarbonyloxyphenyl 4-guanidinobenzoate], the IC50 at thrombin came to 580 nM; on plasmin (setting [3]), 10 nM; against trypsin it was 0.47 nM; on factor Xa it was 3600 nM.
On to `CS(=O)(=O)O.N=C(N)Nc1ccc(C(=O)Oc2cc(Cl)cc(OS(=O)(=O)C=Cc3ccccc3)c2)cc1` [Compound 39, 3-chloro-5-(β-styrenesulfonyloxy)phenyl 4-guanidinobenzoate methanesulfonic acid salt], for which the IC50 at thrombin is 21 nM; at plasmin (setting [3]), 12 nM; against trypsin, 0.36 nM; against factor Xa, 160 nM. Besides, the Serum amylase in the test on male rats of Wistar line (10 mg/kg oral, caerulein alone 817 ± 103, no treatment 134 ± 11) is listed as 556 ± 31 IU/ml; in the test on male rats of Wistar line (50 mg/kg oral, caerulein alone 817 ± 103), 362 ± 15 IU/ml; in the test on male rats of Wistar line (setting [1]) it was 99 ± 17 IU/ml. Also, the “% Pancreas wt.” value in the test on male rats of Wistar line (10 mg/kg oral, caerulein alone 0.88 ± 0.07, no treatment 0.38 ± 0.06) is given as 0.99 ± 0.16%; with male rats of Wistar line (50 mg/kg oral, caerulein alone 0.88 ± 0.07), 0.66 ± 0.04%; in the test with male rats of Wistar line (setting [2]), 0.39 ± 0.06%. Also, the “histological observation of the pancreas” value with male rats of Wistar line (rat groups of 10, 50 and 100 mg oral doses, caerulein pancreatitis) is “no evident appearance of vacuoles inside the acinic cells, and the appearance of interstitial edema was almost negligible”.
